Data reported in ChEMBL document CHEMBL4483862, “Open-source discovery of chemical leads for next-generation chemoprotective antimalarials” (2018).

System: Plasmodium berghei
Assay: Luciferase/luciferin-expressing antifolate-resistant parasites were used to infect a culture of HepG2 cells that were pre-incubated with compounds. Infected hepatocytes emit light due to the luciferase reaction. Assay results are presented as the percent inhibition of light emission compared to control. […]
Type: functional
Conditions: sporozoite; for IC90: read-out: LUCIFERASE INFECTION ASSAY - IC90
[1] = read-out: LUCIFERASE INFECTION ASSAY - IC50

Structure (SMILES) | IC90 [µM] | IC50 [1] [µM] | other results
Cc1ccc(-n2c(C)cc(C3=NN=C(NC4CC4)SC3)c2C)cc1C | 3.59 |  | 
O=S(=O)(Cc1noc(-c2cccs2)n1)c1ccc(F)cc1 | > 10.2 | > 10.2 | 
CC(=O)Nc1ccc(CC#N)cc1 | > 18.9 | > 18.9 | 
CO[C@H]1[C@H](O)[C@H](O[C@H]2CC[C@]3(C)C4CC[C@]5(C)C(C6=CC(=O)OC6)CC[C@]5(O)C4CC[C@@H]3C2)O[C@@H](C)[C@@H]1O (stereo partly drawn) | 0.138 |  | 
O=C(NC1CC1)c1ccc(-c2cnc3c(NCc4cccs4)nccn23)cc1 | 3.14 |  | 
CN(C)CCNC(=O)c1cccc(-c2cnc3ccc(-c4cccs4)nn23)c1 | 3.6 |  | 
Cn1ccc2cc(-c3cnc4cnc(-c5ccccc5CO)cn34)ccc21 | 0.0193 |  | 
Cn1c(N)c(C(=O)COC(=O)c2c3c(nc4ccccc24)CCCCC3)c(=O)n(C)c1=O | > 10 | 8.99 | 
O=C(Nc1ccc(N2CCCC2)cn1)c1cccc(F)c1 | 0.0621 |  | 
CNC(=O)c1cccc(Nc2ccn3nc(-c4ccccc4)cc3n2)c1 | 3.76 |  | 
O=C(c1cccs1)N1CCc2[nH]nc(-c3ccc(Cl)cc3)c2C1 | > 9.6 | > 9.6 | 
OCC1CCCN(c2nn3cc(-c4ccccc4)nc3s2)C1 (stereo not drawn) | 0.00758 |  | 
OCCCNc1nc(-c2ccccc2)nc2sc(-c3ccccc3)cc12 | > 10 | > 10 | 
Cc1cc(NC(=O)C(C)(C)C)sc1C(=O)Nc1ccccc1O | 0.526 |  | 
Cc1ccccc1-c1cn2c(-c3ccc(N(C)C)cc3)cnc2cn1 | > 10 |  | 
CC(C)OC(=O)c1nnsc1S(=O)(=O)c1ccc(Cl)cc1 | > 9.52 | > 9.52 | 
CC1(C)C=Cc2cc(C(=N)NOC(=O)c3cccs3)ccc2O1 | 0.21 |  | 
CN(CC1COc2ccccc2O1)C(=O)Nc1nc2ccccc2s1 (stereo not drawn) | > 10 |  | 
COC(=O)c1ccc(C(=O)OC)c(N(C)S(C)(=O)=O)c1 | > 11 | > 11 | 
COc1ccc(Nc2nccn3c(-c4cccc(NC(C)=O)c4)cnc23)cc1 | 0.122 |  | 
CC1(C)C=Cc2cc(-c3noc(-c4ccccc4)n3)ccc2O1 | 0.379 |  | 
CC(C)(C)c1ccc(OCCNC(=O)c2cccnc2)cc1 | > 11.1 | > 11.1 | 

Structure (SMILES) | IC90 [µM] | IC50 [1] [µM] | other results
CN(C)Cc1ccc(C(=O)Nc2nc3ccccc3[nH]2)cc1 | 0.483 |  | 
O=C(Nc1ccc(N2CCOCC2)cn1)c1ccccc1 | > 10 |  | 
CCCc1ccc(-c2nc(-c3cccs3)no2)cc1 | 0.0812 |  | 
CCOc1ccc(Nc2nc(-c3c(C)nc4cc(C)ccn34)cs2)cc1 | 6.99 |  | 
N#CCNc1ccccc1 [(PHENYLAMINO)ACETONITRILE] | > 10 | > 10 | 
O=c1c2ccccc2[nH]c2ccccc12 [ACRIDONE] | 5.03 |  | IC50 (PBLUC_HILL_SLOPE 1.89, PBLUC_R_SQUARED 0.789, read-out: LUCIFERASE INFECTION ASSAY - IC50): 1.57 µM
CC(=C\c1ccc(Cl)cc1)/C(C)=N/O [AP18 5] | 5.3 |  | IC50 (HEPG2TOX_HILL_SLOPE 1.12, HEPG2TOX_R_SQUARED 0.98, PBLUC_HILL_SLOPE 2.33, PBLUC_R_SQUARED 0.772, read-out: LUCIFERASE INFECTION ASSAY - IC50): 2.07 µM
CC12CCC(CC1=O)C2(C)C (stereo not drawn) [CAMPHOR] | > 21.7 |  | IC50 (FFLUC_HILL_SLOPE 14.9, FFLUC_R_SQUARED 0.342, read-out: LUCIFERASE INFECTION ASSAY - IC50): > 21.7 µM
N#CC(C#N)=NNc1cccc(Cl)c1 [CARBONYL CYANIDE M-CHLOROPHENYLHYDRAZONE] | 13.9 | 3.84 | 
O=C(O)CNC(=O)/C=C/c1ccccc1 [CINNAMOYLGLYCINE] | > 10 | > 10 | 
CC1(C)N=C(N)N=C(N)N1c1ccc(Cl)cc1 [CYCLOGUANIL] | 0.515 |  | IC50 (FFLUC_HILL_SLOPE 0.496, FFLUC_R_SQUARED 0.478, PBLUC_HILL_SLOPE 5.33, PBLUC_R_SQUARED 0.733, read-out: LUCIFERASE INFECTION ASSAY - IC50): 0.341 µM
C/C=C(/C(=C/C)c1ccc(O)cc1)c1ccc(O)cc1 [DIENESTROL] | > 12.4 |  | IC50 (FFLUC_HILL_SLOPE 1.35, FFLUC_R_SQUARED 0.489, HEPG2TOX_HILL_SLOPE 1.17, HEPG2TOX_R_SQUARED 0.908, PBLUC_HILL_SLOPE 0.733, PBLUC_R_SQUARED 0.69, read-out: LUCIFERASE INFECTION ASSAY - IC50): 1.24 µM
C[C@H]1O[C@@H](O[C@H]2[C@@H](O)C[C@H](O[C@H]3[C@@H](O)C[C@H](O[C@H]4CC[C@@]5(C)[C@H](CC[C@@H]6[C@@H]5C[C@@H](O)[C@]5(C)[C@@H](C7=CC(=O)OC7)CC[C@]65O)C4)O[C@@H]3C)O[C@@H]2C)C[C@H](O)[C@@H]1O [DIGOXIN] | 0.117 | 0.0489 | 
C[C@]12CC[C@@H]3c4ccc(O)cc4CC[C@H]3[C@@H]1CC[C@@H]2O [ESTRADIOL] | 9.85 | 5.43 | 
CCOc1ccc2nc3cc(N)ccc3c(N)c2c1 [ETHACRIDINE] | > 9.61 |  | IC50 (HEPG2TOX_HILL_SLOPE 3.77, HEPG2TOX_R_SQUARED 0.987, read-out: LUCIFERASE INFECTION ASSAY - IC50): > 9.61 µM
C=CCc1ccc(O)c(-c2ccc(O)c(CC=C)c2)c1 [HONOKIOL] | > 12.4 |  | IC50 (FFLUC_HILL_SLOPE 14.9, FFLUC_R_SQUARED 0.388, read-out: LUCIFERASE INFECTION ASSAY - IC50): > 12.4 µM
CC(C)(C)c1ccc(Oc2ccc(N)cn2)cc1 [LIMANTRAFIN] | > 13.6 |  | IC50 (PBLUC_HILL_SLOPE 0.71, PBLUC_R_SQUARED 0.895, read-out: LUCIFERASE INFECTION ASSAY - IC50): 1.19 µM
CC(=O)c1c(C)[n+]([O-])c2ccccc2[n+]1[O-] [MEQUINDOX] | > 15.1 |  | IC50 (FFLUC_HILL_SLOPE 0.566, FFLUC_R_SQUARED 0.11, read-out: LUCIFERASE INFECTION ASSAY - IC50): > 15.1 µM
CCOc1cc(-c2nccc3cc(OC)c(OC)cc23)cc(OCC)c1OCC [OCTAVERINE] | 8.02 |  | IC50 (PBLUC_HILL_SLOPE 10.1, PBLUC_R_SQUARED 0.35, read-out: LUCIFERASE INFECTION ASSAY - IC50): 6.45 µM
COc1ccc(Cc2nccc3cc(OC)c(OC)cc23)cc1OC [PAPAVERINE] | > 8.78 | > 8.78 | 
O=C1c2ccccc2C(=O)c2sccc21 [THIOPHENONAPHTHOQUINONE] | > 15.4 |  | IC50 (PBLUC_HILL_SLOPE 0.947, PBLUC_R_SQUARED 0.583, read-out: LUCIFERASE INFECTION ASSAY - IC50): 2.81 µM
